The values that follow are results of earlier work, collected in patent US12484617B2, “Oral pouch product” (Altria Client Services LLC, priority 2022, dated 2025).

The conditions of this data set: free base (non-protonated).

As for `CN1CCCC1c1cccnc1` (stereo not shown) [Free-base nicotine, 3-(1-methyl-2-pyrrolidinyl)pyridine], the pKa value result is reported as “about 8”.
